Data on 22 molecules can be found in US20110224210A1, “NOVEL BIS-AMIDES AS ANTI-MALARIAL AGENTS” (priority 2008, published 2011).

A word on the IC50: it is the concentration that gives 50% inhibition.

The first assay has as its system P. falciparum K1 (strain resistant to chloroquine and pyrimethamine), erythrocytic stages. As to the kind of experiment: Plasmodium falciparum in vitro assay, [3H] hypoxanthine incorporation. The class given is cell-based. To be noted: P. falciparum strain K1; [3H] hypoxanthine incorporation; read-out: IC50 (nM) on K1. On the procedure: In Vitro Antimalarial Activity: Plasmodium falciparum In Vitro Assay
In vitro activity against erythrocytic stages of P. falciparum is determined using a [^3H] hypoxanthine incorporation assay. One strain resistant to chloroquine and pyrimethamine (P. falciparum K1) is used in the assays, and all test compounds are compared for activity with the standard drugs chloroquine (sigma C6628) and artemisinin (sigma-36, 159-3). Compounds are diluted in DMSO to 1 mM and added to parasite cultures incubated in RPMI 1640 medium without hypoxanthine, supplemented with HEPES (5.94 g/L), NaHCO3 (2.1 g/L), neomycin (100 U/mL), Albumax (5 g/L) and washed human red cells at 2.5% haematocrit (0.3% parasitaemia). Seven serial doubling dilutions of each compound are prepared in 96-well microtitre plates and incubated in a humidifying atmosphere at 37° C.; 4% CO2, 3% O2, 93% N2.
After 48 h, 50 μl of [3H] hypoxanthine (0.5 μCi) is added to each well of a plate. The plates are incubated for a further 24 h under the same conditions. The plates are then harvested with a Betaplate cell harvester (Wallac) and washed with distilled water. The dried filters are inserted into a plastic foil with 10 mL of scintillation fluid, and counted in a Betaplate liquid scintillation counter. IC50 values are calculated from sigmoidal inhibition curves using Microsoft Excel.
In the case of `CC(=O)N1CCN(c2ccc(CN(C(=O)C=Cc3ccc(C(F)(F)F)cc3)[C@@H](Cc3ccccc3)C(=O)N(C)CCOCc3ccc(C)cc3C)cc2)CC1` [Example 194, (S)-N-[4-(4-Acetyl-piperazin-1-yl)-benzyl]-N-(1-{[2-(2,4-dimethyl-benzyloxy)-ethyl]-methyl-carbamoyl}-2-phenyl-ethyl)-3-(4-trifluoromethyl-phenyl)-acrylamide], the IC50 was determined as 89 nM.

Still in this assay, the particulars now being: Plasmodium falciparum, K1, P. falciparum strain K1; [3H] hypoxanthine incorporation; read-out: IC50 (nM) on K1.
On to `COCCN(C)C(=O)[C@H](Cc1ccccc1)N(Cc1ccc(-c2ccccn2)cc1)C(=O)C=Cc1nc(C)oc1C` [Example 81, (S)-3-(2,5-Dimethyl-oxazol-4-yl)-N-{1-[(2-methoxy-ethyl)-methyl-carbamoyl]-2-phenyl-ethyl}-N-(4-pyridin-2-yl-benzyl)-acrylamide], for which the IC50 turned out to be 102 nM.
As for `COCCN(C)C(=O)[C@H](Cc1ccccc1)N(Cc1ccc(-c2ccncc2)cc1)C(=O)C=Cc1cnc(C)n1C` [Example 92, (S)-3-(2,3-Dimethyl-3H-imidazol-4-yl)-N-{1-[(2-methoxy-ethyl)-methyl-carbamoyl]-2-phenyl-ethyl}-N-(4-pyridin-4-yl-benzyl)-acrylamide], the IC50 was found to be 23 nM.
With `COc1ccc(COCCN(C)C(=O)[C@H](Cc2ccccc2)N(Cc2ccc(N3CCOCC3)cc2)C(=O)C=Cc2ccc(C(F)(F)F)cc2)cc1F` [Example 196, (S)-N-(1-{[2-(3-Fluoro-4-methoxy-benzyloxy)-ethyl]-methyl-carbamoyl}-2-phenyl-ethyl)-N-(4-morpholin-4-yl-benzyl)-3-(4-trifluoromethyl-phenyl)-acrylamide], the IC50 worked out at 16 nM.
For `COc1ccc(COCCN(C)C(=O)[C@H](Cc2ccccc2)N(Cc2ccc(N3CCN(C(C)=O)CC3)cc2)C(=O)C=Cc2ccc(C(F)(F)F)cc2)cc1F` [Example 184, (S)-N-[4-(4-Acetyl-piperazin-1-yl)-benzyl]-N-(1-{[2-(3-fluoro-4-methoxy-benzyloxy)-ethyl]-methyl-carbamoyl}-2-phenyl-ethyl)-3-(4-trifluoromethyl-phenyl)-acrylamide, formic acid], the IC50 was determined as 13 nM.
In the case of `CC(=O)N1CCN(c2ccc(CN(C(=O)C=Cc3ccc(C(F)(F)F)cc3)[C@@H](Cc3ccccc3)C(=O)N(C)CCOCc3ccc(C)cc3C)cc2)CC1` [Example 183, (S)-N-[4-(4-Acetyl-piperazin-1-yl)-benzyl]-N-(1-{[2-(2,4-dimethyl-benzyloxy)-ethyl]-methyl-carbamoyl}-2-phenyl-ethyl)-3-(4-trifluoromethyl-phenyl)-acrylamide, formic acid], the IC50 is 60 nM.
For `COCCN(C)C(=O)[C@H](Cc1ccccc1)N(Cc1ccc(-c2ccccn2)cc1)C(=O)C=Cc1cnn(C)c1C` [Example 90, (S)-3-(1,5-Dimethyl-1H-pyrazol-4-yl)-N-{1-[(2-methoxy-ethyl)-methyl-carbamoyl]-2-phenyl-ethyl}-N-(4-pyridin-2-yl-benzyl)-acrylamide], the IC50 is 43 nM.
For the molecule `COCCN(C)C(=O)[C@H](Cc1ccccc1)N(Cc1ccc(-c2cncnc2)cc1)C(=O)C=Cc1cc(C)on1` [Example 123, (S)-N-{1-[(2-Methoxy-ethyl)-methyl-carbamoyl]-2-phenyl-ethyl}-3-(5-methyl-isoxazol-3-yl)-N-(4-pyrimidin-5-yl-benzyl)-acrylamide], the IC50 came out at 296 nM.
Still for that read-out and setting: the result for `CC(=O)N1CCN(c2ccc(CN(C(=O)C=Cc3ccc(C(F)(F)F)cc3)[C@@H](Cc3ccccc3)C(=O)N(C)CCN(C)Cc3ccc4c(c3)OCO4)cc2)CC1` [Example 249, (S)-N-[4-(4-Acetyl-piperazin-1-yl)-benzyl]-N-(1-{[2-(benzo[1,3]dioxol-5-ylmethyl-methyl-amino)-ethyl]-methyl-carbamoyl}-2-phenyl-ethyl)-3-(4-trifluoromethyl-phenyl)-acrylamide] reads 39 nM.
Regarding `CN(CCOCc1ccccc1)C(=O)[C@H](Cc1ccccc1)N(Cc1ccc(N2CCOCC2)cc1)C(=O)C=Cc1ccc(C(F)(F)F)cc1` [Example 182, (S)-N-{1-[(2-Benzyloxy-ethyl)-methyl-carbamoyl]-2-phenyl-ethyl}-N-(4-morpholin-4-yl-benzyl)-3-(4-trifluoromethyl-phenyl)-acrylamide], the IC50 worked out at 18 nM.
`COCCN(C)C(=O)[C@H](Cc1ccccc1)N(Cc1ccc(-c2ccccn2)cc1)C(=O)C=Cc1cc(C)nn1C` [Example 74, (S)-3-(2,5-Dimethyl-2H-pyrazol-3-yl)-N-{1-[(2-methoxy-ethyl)-methyl-carbamoyl]-2-phenyl-ethyl}-N-(4-pyridin-2-yl-benzyl)-acrylamide]: the IC50 stood at 40 nM.
Take `O=C([C@H](Cc1ccccc1)N(Cc1ccc(N2CCOCC2)nc1)C(=O)C=Cc1ccc(C(F)(F)F)nc1)N1CCC(Cc2ccccc2)CC1` [Example 144, (S)-N-[1-Benzyl-2-(4-benzyl-piperidin-1-yl)-2-oxo-ethyl]-N-(6-morpholin-4-yl-pyridin-3-ylmethyl)-3-(6-trifluoromethyl-pyridin-3-yl)-acrylamide]: the IC50 turned out to be 24 nM.
As for `O=C([C@H](Cc1ccccc1)N(Cc1ccc(-c2ccccn2)cc1)C(=O)C=Cc1ccc(C(F)(F)F)cc1)N1CCC(Cc2ccccc2)CC1` [Example 46, (S)-N-[1-Benzyl-2-(4-benzyl-piperidin-1-yl)-2-oxo-ethyl]-N-(4-pyridin-2-yl-benzyl)-3-(4-trifluoromethyl-phenyl)-acrylamide], the IC50 is 1 nM.
On the same count and under the same terms, the result for `COCCN(C)C(=O)[C@H](Cc1ccccc1)N(Cc1ccc(-c2ccccn2)cc1)C(=O)C=Cc1ccc(OC)nc1` [Example 87, (S)-N-{1-[(2-Methoxy-ethyl)-methyl-carbamoyl]-2-phenyl-ethyl}-3-(6-methoxy-pyridin-3-yl)-N-(4-pyridin-2-yl-benzyl)-acrylamide] reads under 8 nM; that for `CN(CCN(C)C(=O)[C@H](Cc1ccccc1)N(Cc1ccc(N2CCOCC2)cc1)C(=O)C=Cc1ccc(C(F)(F)F)cc1)Cc1nccs1` [Example 265, (S)-N-(1-{Methyl-[2-(methyl-thiazol-2-ylmethyl-amino)-ethyl]-carbamoyl}-2-phenyl-ethyl)-N-(4-morpholin-4-yl-benzyl)-3-(4-trifluoromethyl-phenyl)-acrylamide], 36 nM; that for `CC(=O)N1CCN(c2ccc(CN(C(=O)C=Cc3ccc(C(F)(F)F)cc3)[C@@H](Cc3ccccc3)C(=O)N(C)CCN(C)Cc3ccc(OCCCN(C)C)cc3)cc2)CC1` [Example 246, (S)-N-[4-(4-Acetyl-piperazin-1-yl)-benzyl]-N-{1-[(2-{[4-(3-dimethylamino-propoxy)-benzyl]-methyl-amino}-ethyl)-methyl-carbamoyl]-2-phenyl-ethyl}-3-(4-trifluoromethyl-phenyl)-acrylamide], 64 nM.
Still for that read-out and setting: to `COCCN(C)C(=O)[C@H](Cc1ccccc1)N(Cc1ccc(-c2cncnc2)cc1)C(=O)C=Cc1ccc(OC)nn1` [Example 126, (S)-N-{1-[(2-Methoxy-ethyl)-methyl-carbamoyl]-2-phenyl-ethyl}-3-(6-methoxy-pyridazin-3-yl)-N-(4-pyrimidin-5-yl-benzyl)-acrylamide] belongs 160 nM; to `COCCN(C)C(=O)[C@H](Cc1ccccc1)N(Cc1ccc(N2CCN(C(C)=O)CC2)cc1)C(=O)C=Cc1cnn(C)c1C` [Example 117, (S)-N-[4-(4-Acetyl-piperazin-1-yl)-benzyl]-3-(1,5-dimethyl-1H-pyrazol-4-yl)-N-{1-[(2-methoxy-ethyl)-methyl-carbamoyl]-2-phenyl-ethyl}-acrylamide], 117 nM.
As to `CC(=O)N1CCN(c2ccc(CN(C(=O)C=Cc3ccc(C(F)(F)F)cc3)[C@@H](Cc3ccccc3)C(=O)N(C)CCOCc3cccc(OC(F)(F)F)c3)cc2)CC1` [Example 186, (S)-N-[4-(4-Acetyl-piperazin-1-yl)-benzyl]-N-(1-{methyl-[2-(3-trifluoromethoxy-benzyloxy)-ethyl]-carbamoyl}-2-phenyl-ethyl)-3-(4-trifluoromethyl-phenyl)-acrylamide, formic acid], the IC50 is 58 nM.
Turning to `Cc1cc(C=CC(=O)N(Cc2ccc(-c3ccccn3)cc2)[C@@H](Cc2ccccc2)C(=O)N2CCC(N(C)C)CC2)n(C)n1` [Example 8, (S)-N-[1-Benzyl-2-(4-dimethylamino-piperidin-1-yl)-2-oxo-ethyl]-3-(2,5-dimethyl-2H-pyrazol-3-yl)-N-(4-pyridin-2-yl-benzyl)-acrylamide], the half-maximal inhibitory concentration (IC50) came out at 381 nM.
On to `CN(CCO)C(=O)[C@H](Cc1ccccc1)N(Cc1ccc(N2CCOCC2)cc1)C(=O)C=Cc1ccc(C(F)(F)F)cc1` [Example 175, (S)-N-{1-[(2-Hydroxy-ethyl)-methyl-carbamoyl]-2-phenyl-ethyl}-N-(4-morpholin-4-yl-benzyl)-3-(4-trifluoromethyl-phenyl)-acrylamide], for which the IC50 was 88 nM.
With `CN(CCN(C)C(=O)[C@H](Cc1ccccc1)N(Cc1ccc(N2CCOCC2)cc1)C(=O)C=Cc1ccc(C(F)(F)F)cc1)Cc1cccnc1` [Example 259, (S)-N-(1-{Methyl-[2-(methyl-pyridin-3-ylmethyl-amino)-ethyl]-carbamoyl}-2-phenyl-ethyl)-N-(4-morpholin-4-yl-benzyl)-3-(4-trifluoromethyl-phenyl)-acrylamide], the IC50 was 32 nM.
